Test results taken from PMC6042793 (PLoS ONE, 2018).

Experiments:
[1] = test system: sialidase activity of A/Shizuoka/30/2014 (H1N1pdm), H275Y; type: biochemical, influenza A virus (H1N1pdm); conditions: pH 6.5
[2] = test system: sialidase activity of A/Shizuoka/1573/2009 (H1N1pdm), H275Y; type: biochemical, influenza A virus (H1N1pdm); conditions: pH 6.5
[3] = molecular target: viral sialidase activity of A/Shizuoka/17/2016 (H1N1pdm) (Influenza A virus, UniProt A0A0X9QTS2); type: biochemical; conditions: read-out: IC50 values in the sialidase inhibition assay
[4] = molecular target: viral sialidase activity of A/Shizuoka/19/2016 (H1N1pdm) (Influenza A virus, UniProt A0A0X9QTS2); type: biochemical; conditions: read-out: IC50 values in the sialidase inhibition assay
[5] = molecular target: viral sialidase activity of A/Shizuoka/30/2014 (H1N1pdm), H275Y (Influenza A virus, UniProt W8DXJ8, H275Y); type: biochemical
[6] = molecular target: viral sialidase activity of A/Shizuoka/1573/2009 (H1N1pdm), H275Y (Influenza A virus, UniProt C3W5S3, H275Y); type: biochemical; conditions: read-out: IC50 values in the sialidase inhibition assay

CCOC(=O)C1=C[C@@H](OC(CC)CC)[C@H](NC(C)=O)[C@@H](N)C1 [OV, oseltamivir]
BTP3 fluorescence on the membrane in the presence of NAI [1]: strong fluorescence | BTP3 fluorescence on the membrane in the presence of NAI [2]: strong fluorescence

CCC(CC)[C@H](NC(C)=O)[C@@H]1[C@H](O)[C@@H](C(=O)O)C[C@H]1N=C(N)N [PV, peramivir]
IC50 [3]: 0.05 nM | IC50 [4]: 0.05 nM | IC50 for A/Shizuoka/30/2014 relative to that for A/Shizuoka/1573/2009 [5]: 1.9 fold | IC50 ([5]; read-out: IC50 values in the sialidase inhibition assay): 79 nM | IC50 [6]: 41 nM | BTP3 fluorescence on the membrane in the presence of NAI [1]: strong fluorescence | BTP3 fluorescence on the membrane in the presence of NAI [2]: strong fluorescence
